Results on six compounds are retold here after US9522377B2, “Method for improving the properties of amphiphile particles” (CAMURUS AB, priority 2003, dated 2016).

The conditions of series [1]: for effect on lattice constant of cubic phase, autoclaved dispersions / effect on particle size of autoclaved dispersions: autoclaved 121° C., 15+5 min; for influence on non-autoclaved dispersions: chloramphenicol 0.3, 1 and 2%, miconazole 0.3 and 1%; for influence of drug on properties of the dispersions: 0.3% drug, GMOrphic/12% P407, non-autoclaved and autoclaved.
Description: All drug concentrations are indicated relative to the sum of monoglyceride and poloxamer. A drug-free dispersion was prepared and investigated as a reference.
All dispersions were autoclaved at 121° C. for 15+5 min. (allowing for temperature equilibration in the autoclave) and their properties were compared to that of the corresponding non-autoclaved dispersions.
Series [2] is described as follows: Active agent loading of cubic particles. In kind it is physicochemical. Here is the method:
To the dispersions is added the cationic peptide desmopressin to a concentration of 1 mg/ml. The dispersion is allowed to equilibrate for 60 minutes at room temperature and reanalyzed for particle size and optionally phase behaviour. The particle size is not affected as determined using laser diffraction.
A dispersion of cubic particles of formulation GMO/OA/F-127 (84.5:4.5:10) was prepared as in Example 24. The steroid hormone progesterone was incubated with the cubic particles at room temperature as described for desmopressin in Example 22. The equilibrium loading level was 3% by weight.
The above method was repeated by the active agent progesterone was included in the aqueous phase prior to the homogenisation and heat treatment steps. The loading level was again examined and established to be 18 wt %. The effect upon the particle size distribution was minimal.

Molecules are shown by their SMILES.

Regarding `O=C(N[C@H](CO)[C@H](O)c1ccc([N+](=O)[O-])cc1)C(Cl)Cl` [chloramphenicol], in series [1], the “effect on lattice constant of cubic phase, autoclaved dispersions” value is “slight increase in lattice constant”; the “effect on particle size of autoclaved dispersions” value was “particle sizes increased distinctly with drug concentration”; the “influence on non-autoclaved dispersions” value is listed as “no influence on the non-autoclaved dispersions”.
Take `CCCCC(=O)O[C@]1(C(=O)CO)[C@@H](C)C[C@H]2[C@@H]3CCC4=CC(=O)C=C[C@]4(C)[C@@]3(F)[C@@H](O)C[C@@]21C` [betamethasone-17-valerate]: in series [1] (0.3, 1 or 2% drug), the “influence of drug on general behaviour of the dispersions” value is “no influence on the general behaviour of the dispersions”.
Turning to `COC1=C(OC)C(=O)C(C/C=C(\C)CC/C=C(\C)CC/C=C(\C)CC/C=C(\C)CC/C=C(\C)CC/C=C(\C)CC/C=C(\C)CC/C=C(\C)CC/C=C(\C)CCC=C(C)C)=C(C)C1=O` [Ubidecarenone, ubidecarenone], in series [1], the “influence of drug on properties of the dispersions” value was “did not influence the properties of the resulting dispersions”.
Regarding `Clc1ccc(COC(Cn2ccnc2)c2ccc(Cl)cc2Cl)c(Cl)c1` (centres unmarked) [miconazole], in series [1], the “effect on lattice constant of cubic phase, autoclaved dispersions” value is given as “decreased slightly”; the “effect on particle size of autoclaved dispersions” value is “slightly larger (0.3%) and distinctly larger (1%) particle sizes”; the “influence on non-autoclaved dispersions” value is listed as “no influence on the non-autoclaved dispersions”.
As to `CC(=O)Oc1c(C)c(C)c2c(c1C)CCC(C)(CCC[C@H](C)CCC[C@H](C)CCCC(C)C)O2` (some centres unmarked) [tocopherol acetate], the “influence of drug on properties of the dispersions” value in series [1] was “did not influence the properties of the resulting dispersions”.
For `CC(=O)[C@H]1CC[C@H]2[C@@H]3CCC4=CC(=O)CC[C@]4(C)[C@H]3CC[C@]12C` [progesterone], the loading level in series [2] (included in aqueous phase prior to homogenisation and heat treatment, GMO/OA/F-127 (84.5:4.5:10)) was found to be 18 wt %. Besides, the equilibrium loading level in series [2] (incubated with GMO/OA/F-127 (84.5:4.5:10) cubic particles at room temperature) is recorded as 3 % by weight.
